Reference: US5840688A, “Eating suppressant peptides” (Research Corporation Technologies, Inc., priority 1995, dated 1998)
No end group written: not given here.

B1: apo A-IV: 46,000-Da polypeptide associated with lipoproteins; species of the cited test protein not printed (protein, UniProt P06727 21-396, looked up)
Apolipoprotein A-IV: EVSADQVATVMWDYFSQLSNNAKEAVEHLQKSELTQQLNALFQDKLGEVNTYAGDLQKKLVPFATELHERLAKDSEKLKEEIGKELEELRARLLPHANEVSQKIGDNLRELQQRLEPYADQLRTQVSTQAEQLRRQLTPYAQRMERVLRENADSLQASLRPHADELKAKIDQNVEELKGRLTPYADEFKVKIDQTVEELRRSLAPYAQDTQEKLNHQLEGLTFQMKKNAEELKARISASAEELRQRLAPLAEDVRGNLRGNTEGLQKSLAELGGHLDQQVEEFRRRVEPYGENFNKALVQQMEQLRQKLGPHAGDVEGHLSFLEKDLRDKVNSFFSTFKEKESQDKTLSLPELEQQQEQQQEQQQEQVQMLAPLES
B2: human apo A-IV: entire human apolipoprotein A-IV molecule obtained from human serum, purified by preparative polyacrylamide gel electrophoresis (protein, UniProt P06727 21-396, looked up)
Apolipoprotein A-IV: B1 Apolipoprotein A-IV
B3: cholecystokinin (peptide, UniProt P06307 21-115, looked up)
Cholecystokinin: QPVPPADPAGSGLQRAEEAPRRQLRVSQRTDGESRAHLGALLARYIQQARKAPSGRMSIVKNLQNLDPSHRISDRDYMGWMDFGRRSAEEYEYPS
modifications: Cholecystokinin
notes: peptide proposed as affecting eating behavior

Tests used:
animal = details: in vivo; cited from earlier work
male Sprague Dawley rats [1] = assay: Feeding study: food intake after infusion into the third ventricle of 24 h fasted rats; type: in vivo, rat
Experimental: Animals used in vivo food intake studies were male Sprague Dawley rats weighing between 280 and 320 grams. The rats were housed in a room illuminated from 06:00 to 18:00 hours (twelve hour light-dark cycle) with a temperature maintained at 21 ±1° C. Both tap water and powdered laboratory chow (Laboratory chow #5001, Purina Mills, Inc.) were provided ad libitum to the rats.
Rats used in the study were surgically equipped with an infusion cannula in the third ventricle. Under sodium pentobarbital anesthesia (50 mg/kg ip), each rat was fixed in a stereotaxic apparatus, its skull was exposed, and two small screws were threaded into the skull to anchor the cannula. A three millimeter diameter hole was drilled in the skull on the midline six millimeters anterior to ear bar zero. […]
In the feeding study, food was removed twenty four hours before the experiment, but free access to water was allowed. […] After twenty four hours of fasting, each rat was re-fed at 13:00 hour, and powdered food consumption was measured at thirty minutes after the resumption of feeding. […]
Data from the feeding study were evaluated using one-way analysis of variance, and multiple comparisons were carried out using the method of least significant difference. […]

male Sprague Dawley rats [2] = details: cited from earlier work
[3] = apo A-IV appearing in mesenteric lymph after a lipid meal; cited from earlier work

Molecule | food intake in animal studies (animal) | further results
CSCC[C@H](NC(=O)[C@H](CC(C)C)NC(=O)[C@H](Cc1cnc[nH]1)NC(=O)CNC(=O)[C@@H](NC(=O)[C@H](C)NC(=O)[C@H](Cc1c[nH]c2ccccc12)NC(=O)[C@H](CCC(N)=O)NC(=O)[C@H](CC(N)=O)NC(=O)CNC(=O)[C@H](CC(C)C)NC(=O)[C@H](CCCN=C(N)N)NC(=O)[C@H](CCC(N)=O)NC(=O)[C@@H]1CCC(=O)N1)C(C)C)C(N)=O [bombesin] | decrease food intake | 
EVTSDQVANVMWDYFTQL SNNAKEAVEQLQ (EVTSDQVANVMWDYFTQLSNNAKEAVEQLQ) [SEQ ID NO:1, 30-mer, first thirty amino acids of the mature rat apo A-IV] |  | inhibition of food intake (male Sprague Dawley rats [1]; synthetic peptide infused into third ventricle, doses 0.125-1.0 μg per rat, 24 h fasted, food consumption at thirty minutes after re-feeding): inhibit food intake in a dose-dependent manner
Glucagon | decrease food intake | 
anorectin | decrease food intake | 
calcitonin (CGNLSTCMLGTYTQDFNKFHTFPQTAIGVGAP; ends and bridges not checked; cysteine pairing not given here; UniProt P01258 85-116, looked up) [peptide proposed as affecting eating behavior] | decrease food intake | 
corticotropin releasing hormone (SEEPPISLDLTFHLLREVLEMARAEQLAQQAHSNRKLMEII; ends and bridges not checked; UniProt P06850 154-194, looked up) [peptide proposed as affecting eating behavior] | decrease food intake | 
cyclo-HisPro | decrease food intake | 
enterostatin | decrease food intake | 
B1 |  | food intake after central administration (male Sprague Dawley rats [2]; administered centrally): significantly suppressed in a dose-dependent manner; potency administered centrally versus peripherally (male Sprague Dawley rats [2]; central vs peripheral administration): more than 50 fold; food intake [3]: suppresses food intake
B2 |  | suppression of food intake (male Sprague Dawley rats [1]; third ventricle infusion, 1.5 and 3 μg per rat): effective in suppressing food intake in rats in a dose dependent manner
B3 | decrease food intake | 
